Results published in paper PMC7062867, “Targeting the Oncogenic TBX2 Transcription Factor With Chromomycins” (Frontiers in Chemistry, 2020).

What was measured:
TBX2 [1] = target: T1, TBX2 (Homo sapiens, UniProt Q13207); test: microscale thermophoresis; also recovered by reverse affinity chromatography with UPLC-MS; type: binding
T1 sequence (Q13207 94-287): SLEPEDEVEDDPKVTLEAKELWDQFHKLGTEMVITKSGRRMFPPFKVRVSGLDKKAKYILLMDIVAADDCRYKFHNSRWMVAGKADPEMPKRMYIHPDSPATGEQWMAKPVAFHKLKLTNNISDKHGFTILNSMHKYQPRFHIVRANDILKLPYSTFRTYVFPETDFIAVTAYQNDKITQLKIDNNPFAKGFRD

TBX2 [2] = target: T1, TBX2; test: microscale thermophoresis; type: binding

CO[C@@H]1[C@H](O)C[C@@H](O[C@@H]2C[C@H](Oc3cc4cc5c(c(O)c4c(O)c3C)C(=O)C(O[C@H]3C[C@@H](O[C@H]4C[C@@H](O[C@H]6C[C@](C)(O)[C@@H](OC(=O)C(C)C)[C@H](C)O6)[C@H](O)[C@@H](C)O4)[C@H](O)[C@@H](C)O3)C([C@H](OC)C(=O)[C@@H](O)[C@@H](C)O)C5)O[C@H](C)[C@@H]2OC(C)=O)O[C@@H]1C (some centres unmarked) [CA5, chromomycin A5]
Kd (TBX2 [1]): 31.3 ± 23.3 µM

CO[C@@H]1[C@H](O)C[C@@H](O[C@@H]2C[C@H](Oc3cc4cc5c(c(O)c4c(O)c3C)C(=O)C(O[C@H]3C[C@@H](O[C@H]4C[C@@H](O[C@H]6C[C@](C)(O)[C@@H](OC(C)=O)[C@H](C)O6)[C@H](O)[C@@H](C)O4)[C@H](O)[C@@H](C)O3)C([C@H](OC)C(=O)[C@@H](O)[C@@H](C)O)C5)O[C@H](C)[C@@H]2OC(C)=O)O[C@@H]1C (some centres unmarked) [CA6, chromomycin A6]
Kd (TBX2 [2]): 24.4 ± 13.6 µM
